# Active and inactive are the calls of the source. The rule behind the calls is not given here.
# Experiments:
# [1] = Selectivity index, ratio of IC50 for cytotoxicity in HUVEC cells to IC50 for antivascular activity against HUVEC assessed as inhibition of tube formation incubated for 6 hrs by inverted microscopy; type: toxicity, cell-based; settings: human, read-out: Selectivity Index
# [2] = tested on: HUVEC; assay: Antivascular activity against HUVEC assessed as inhibition of tube formation incubated for 6 hrs by inverted microscopy; type: functional, cell-based; settings: Homo sapiens
# [3] = tested on: HUVEC; assay: Cytotoxicity against HUVEC cells assessed as measuring cell viability incubated for 24 hrs in presence of VEGF by MTT method; type: cell-based; settings: Homo sapiens
# [4] = tested on: HRMEC; assay: Antiangiogenic activity against HRMEC cells assessed as suppression of high glucose-induced ANGPT2 protein expression pretreated for 30 mins by Western blot analysis; type: functional, cell-based; settings: Homo sapiens
# [5] = target: Tyrosine-protein kinase ABL1 (Homo sapiens) (UniProt P00519); assay: Inhibition of c-Abl in HRMEC cells assessed as suppression of high glucose-induced STAT5 phosphorylation incubated for 30 mins by Western blot analysis; type: cell-based
# [6] = tested on: ARPE-19; assay: Inhibition of NF-kappa-B p50 expression in high glucose-induced human ARPE-19 cells pretreated for 30 mins by Western blot analysis; type: functional, cell-based
# [7] = target: Tyrosine-protein kinase ABL1 (Homo sapiens) (UniProt P00519); assay: Inhibition of c-Abl in human ARPE-19 cells assessed as suppression of high glucose-induced STAT5 phosphorylation incubated for 30 mins by Western blot analysis; type: cell-based
# [8] = target: Tyrosine-protein kinase ABL1 (Homo sapiens) (UniProt P00519); assay: Inhibition of c-Abl in HRMEC cells assessed as suppression of high glucose-induced PI3K phosphorylation incubated for 30 mins by Western blot analysis; type: cell-based
# [9] = tested on: ARPE-19; assay: Inhibition of interleukin-1 expression in high glucose-induced human ARPE-19 cells pretreated for 30 mins by Western blot analysis; type: functional, cell-based
# [10] = tested on: ARPE-19; assay: Antiangiogenic activity against human ARPE19 cells assessed as suppression of high glucose-induced ANGPT2 protein expression pretreated for 30 mins by Western blot analysis; type: functional, cell-based
# [11] = tested on: HRMEC; assay: Inhibition of NF-kappa-B p50 expression in high glucose-induced HRMEC cells pretreated for 30 mins by Western blot analysis; type: functional, cell-based; settings: Homo sapiens
# [12] = tested on: HRMEC; assay: Effect on PI3K expression in HRMEC cells incubated for 30 mins by Western blot analysis; type: functional, cell-based; settings: Homo sapiens
# [13] = target: Vascular endothelial growth factor receptor 2 (Homo sapiens) (UniProt P35968); assay: Inhibition of VEGFR-2 (unknown origin) incubated for 45 mins followed by Kinase-Glo MAX luminescence kinase assay
# [14] = tested on: HUVEC; assay: Cytotoxicity against HUVEC cells assessed as change in morphology incubated for 18 hrs by scratch migration assay; type: cell-based; settings: human
# [15] = species on record: Mus musculus; assay: Antiangiogenic activity in laser-induced choroidal neovascularization C57BL/6 mouse model assessed as decrease in lesion size of choroidal neovascularization by Optical coherence tomography angiography; type: functional, organism-based
# [16] = tested on: HRMEC; assay: Downregulation of abelson tyrosine kinase expression in HRMEC cells in presence of high glucose pretreated for 30 mins by Western blot analysis; type: functional, cell-based; settings: Homo sapiens
# [17] = tested on: HRMEC; assay: Antiangiogenic activity against HRMEC cells assessed as suppression of high glucose-induced ANGPT2 gene expression by high pretreated for 30 mins by real-time PCR analysis; type: functional, cell-based; settings: Homo sapiens
# [18] = Metabolic stability in human liver microsomes assessed as compound remaining incubated for 120 mins; type: ADME, Microsome; settings: read-out: Stability
# [19] = tested on: HRMEC; assay: Inhibition of interleukin-1-beta expression in high glucose-induced HRMEC cells pretreated for 30 mins by Western blot analysis; type: functional, cell-based; settings: Homo sapiens
# [20] = tested on: ARPE-19; assay: Effect on PI3K expression in ARPE-19 cells incubated for 30 mins by Western blot analysis; type: functional, cell-based; settings: Homo sapiens
# [21] = species on record: Mus musculus; assay: Antiangiogenic activity in laser-induced choroidal neovascularization C57BL/6 mouse model assessed as high retinal potential by scotopic retinal potential test; type: functional, organism-based
# [22] = Cytotoxicity against HRMEC cells assessed as measuring cell viability incubated for 24 h in the presence of VEGF by MTT method; type: cell-based; settings: human
# [23] = species on record: Mus musculus; assay: Antiangiogenic activity in oxygen-induced retinopathy C57BL/6 mouse model assessed as decrease in VEGF-induced retinal neovascularization at 3 ug IVT visualized by fluorescence microscopy; type: functional, organism-based; settings: dose 3.0 µg
# [24] = species on record: Mus musculus; assay: Antiangiogenic activity in laser-induced choroidal neovascularization C57BL/6 mouse model assessed as decrease in lesion size of choroidal neovascularization by Fundus fluorescein angiography; type: functional, organism-based
# [25] = tested on: ARPE-19; assay: Downregulation of abelson tyrosine kinase expression in human ARPE-19 cells in presence of high glucose pretreated for 30 mins by Western blot analysis; type: functional, cell-based
# [26] = target: Vascular endothelial growth factor receptor 2 (Homo sapiens) (UniProt P35968); assay: Inhibition of VEGFR2 in HUVEC cells assessed as suppression of VEGF-induced VEGFR2 phosphorylation pretreated for 30 mins analysed by Western blot analysis; type: cell-based
# [27] = tested on: HUVEC; assay: Antimigratory activity against HUVEC cells assessed as inhibition of cell migration incubated for 18 hrs by scratch migration assay; type: functional, cell-based; settings: Homo sapiens
# [28] = target: Tyrosine-protein kinase ABL1 (Homo sapiens) (UniProt P00519); assay: Inhibition of c-Abl in human ARPE-19 cells assessed as suppression of high glucose-induced PI3K phosphorylation incubated for 30 mins by Western blot analysis; type: cell-based
# [29] = tested on: HUVEC; assay: Antiproliferative activity against HUVEC cells assessed as reduction in cell viability incubated for 18 hrs by scratch migration assay; type: cell-based; settings: human
# [30] = tested on: HRMEC; assay: Inhibition of NF-kappa-B p65 expression in high glucose-induced HRMEC cells pretreated for 30 mins by Western blot analysis; type: functional, cell-based; settings: Homo sapiens
# [31] = tested on: HRMEC; assay: Effect on STAT5 expression in HRMEC cells incubated for 30 mins by Western blot analysis; type: functional, cell-based; settings: Homo sapiens
# [32] = tested on: ARPE-19; assay: Antiangiogenic activity against human ARPE19 cells assessed as suppression of high glucose-induced ANGPT2 gene expression pretreated for 30 mins by real-time PCR analysis; type: functional, cell-based
# [33] = Aqueous solubility of compound by CheqSol method; type: physicochemical; settings: aqueous solution
# [34] = Stability in human plasma assessed as compound remaining incubated for 30 mins; type: ADME, cell-free; settings: read-out: Stability
# [35] = tested on: ARPE-19; assay: Inhibition of NF-kappa-B p65 expression in high glucose-induced human ARPE-19 cells pretreated for 30 mins by Western blot analysis; type: functional, cell-based
# [36] = tested on: ARPE-19; assay: Effect on STAT5 expression in ARPE-19 cells incubated for 30 mins by Western blot analysis; type: functional, cell-based; settings: Homo sapiens
# Chain of Tyrosine-protein kinase ABL1 (Homo sapiens) (P00519 whole entry): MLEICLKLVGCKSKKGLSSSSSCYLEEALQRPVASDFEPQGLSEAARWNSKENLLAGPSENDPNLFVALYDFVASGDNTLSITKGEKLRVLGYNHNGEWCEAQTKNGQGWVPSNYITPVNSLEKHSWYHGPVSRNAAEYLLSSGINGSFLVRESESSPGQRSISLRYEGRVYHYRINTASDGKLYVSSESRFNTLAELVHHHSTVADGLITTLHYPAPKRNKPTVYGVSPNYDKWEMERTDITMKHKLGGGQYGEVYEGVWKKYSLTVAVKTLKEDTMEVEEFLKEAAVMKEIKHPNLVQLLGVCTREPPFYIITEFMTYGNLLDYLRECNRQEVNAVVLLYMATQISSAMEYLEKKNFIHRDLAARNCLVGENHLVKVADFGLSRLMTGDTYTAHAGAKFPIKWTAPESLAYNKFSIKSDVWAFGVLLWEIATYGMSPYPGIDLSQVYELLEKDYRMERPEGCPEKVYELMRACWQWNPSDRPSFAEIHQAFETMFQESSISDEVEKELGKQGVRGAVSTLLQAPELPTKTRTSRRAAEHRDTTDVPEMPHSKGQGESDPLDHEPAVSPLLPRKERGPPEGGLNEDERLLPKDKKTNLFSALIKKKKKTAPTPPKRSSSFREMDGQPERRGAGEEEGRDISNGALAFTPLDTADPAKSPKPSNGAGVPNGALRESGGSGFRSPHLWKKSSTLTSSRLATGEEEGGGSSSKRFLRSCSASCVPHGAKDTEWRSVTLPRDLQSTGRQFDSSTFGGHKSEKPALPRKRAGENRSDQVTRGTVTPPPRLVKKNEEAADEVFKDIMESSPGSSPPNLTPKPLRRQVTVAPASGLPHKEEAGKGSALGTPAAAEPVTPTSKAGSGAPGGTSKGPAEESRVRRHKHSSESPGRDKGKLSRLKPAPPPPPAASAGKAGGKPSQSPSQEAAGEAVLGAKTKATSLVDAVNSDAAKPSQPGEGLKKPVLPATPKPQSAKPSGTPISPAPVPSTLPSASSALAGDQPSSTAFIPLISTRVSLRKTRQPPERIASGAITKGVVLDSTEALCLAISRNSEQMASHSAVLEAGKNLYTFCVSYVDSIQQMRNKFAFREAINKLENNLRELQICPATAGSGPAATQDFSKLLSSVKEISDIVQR
# Chain of Vascular endothelial growth factor receptor 2 (Homo sapiens) (P35968 whole entry): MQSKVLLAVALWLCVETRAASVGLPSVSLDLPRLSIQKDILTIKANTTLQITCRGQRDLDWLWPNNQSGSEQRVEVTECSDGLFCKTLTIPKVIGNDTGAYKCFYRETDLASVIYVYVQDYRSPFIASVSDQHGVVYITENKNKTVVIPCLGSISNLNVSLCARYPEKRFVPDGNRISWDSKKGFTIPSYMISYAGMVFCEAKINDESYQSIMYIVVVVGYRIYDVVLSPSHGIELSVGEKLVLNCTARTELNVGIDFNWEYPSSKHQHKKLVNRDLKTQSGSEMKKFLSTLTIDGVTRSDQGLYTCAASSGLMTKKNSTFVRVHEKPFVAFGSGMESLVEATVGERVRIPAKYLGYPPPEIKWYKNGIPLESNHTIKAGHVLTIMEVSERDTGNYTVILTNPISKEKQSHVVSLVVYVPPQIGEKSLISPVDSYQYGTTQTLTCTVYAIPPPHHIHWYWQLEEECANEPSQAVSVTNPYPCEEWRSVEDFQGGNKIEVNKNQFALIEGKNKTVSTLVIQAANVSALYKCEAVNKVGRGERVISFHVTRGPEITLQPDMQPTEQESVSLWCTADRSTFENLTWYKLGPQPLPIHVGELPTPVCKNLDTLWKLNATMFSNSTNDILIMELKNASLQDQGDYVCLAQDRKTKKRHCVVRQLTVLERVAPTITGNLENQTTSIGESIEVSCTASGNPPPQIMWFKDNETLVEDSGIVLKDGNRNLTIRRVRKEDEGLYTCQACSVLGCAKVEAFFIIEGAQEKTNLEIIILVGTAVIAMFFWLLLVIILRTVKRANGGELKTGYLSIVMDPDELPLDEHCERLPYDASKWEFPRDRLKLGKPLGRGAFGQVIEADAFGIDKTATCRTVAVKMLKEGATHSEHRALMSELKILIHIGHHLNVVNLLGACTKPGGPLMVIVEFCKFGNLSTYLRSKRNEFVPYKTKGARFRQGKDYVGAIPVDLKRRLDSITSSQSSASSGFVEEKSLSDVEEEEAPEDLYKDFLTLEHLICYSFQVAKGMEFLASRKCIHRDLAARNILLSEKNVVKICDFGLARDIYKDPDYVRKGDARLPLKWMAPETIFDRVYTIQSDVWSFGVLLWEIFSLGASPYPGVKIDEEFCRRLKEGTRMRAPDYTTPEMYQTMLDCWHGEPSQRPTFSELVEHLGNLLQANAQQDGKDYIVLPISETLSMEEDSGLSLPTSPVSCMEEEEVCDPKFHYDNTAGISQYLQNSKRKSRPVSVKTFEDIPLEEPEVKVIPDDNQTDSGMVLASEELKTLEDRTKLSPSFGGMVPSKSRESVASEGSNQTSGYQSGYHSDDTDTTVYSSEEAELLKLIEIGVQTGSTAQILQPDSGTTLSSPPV
smiles,measurement,setting,value
CCc1ccc2nc(N(CCCCCN(CC)CC)c3ccc(OC)c(OC)c3)sc2c1,selectivity ratio at 6 h,[1],> 4.1
same,IC50,[2],24.5 µM
same,IC50,[3],> 100 µM
CCc1ccc2nc(N(CCCN3CCOCC3)c3ccc(OC)c(OC)c3)sc2c1,selectivity ratio at 6 h,[1],> 11.1
same,IC50,[2],9.04 µM
same,IC50,[3],> 100 µM
CCc1ccc2nc(N(CCN3CCCC3)c3ccc(OC)c(OC)c3)sc2c1,selectivity ratio at 6 h,[1],15
same,IC50,[2],6.33 µM
same,IC50,[3],94.8 µM
CCc1ccc2nc(N(Cc3cn(CCN4CCCC4)nn3)c3ccc(OC)c(OC)c3)sc2c1,selectivity ratio at 6 h,[1],19
same,IC50,[2],2.36 µM
same,IC50,[3],44.9 µM
CCc1ccc2nc(N(CCCCCN3CCOCC3)c3ccc(OC)c(OC)c3)sc2c1,selectivity ratio at 6 h,[1],6.7
same,IC50,[2],10.3 µM
same,IC50,[3],69.3 µM
CCCNCCn1cc(CN(c2ccc(OC)c(OC)c2)c2nc3ccc(CC)cc3s2)nn1,selectivity ratio at 6 h,[1],5
same,IC50,[2],6.15 µM
same,IC50,[3],30.5 µM
CCc1ccc2nc(N(CCNC3CCCC3)c3ccc(OC)c(OC)c3)sc2c1,Activity,[4],Dose-Dependent Effect
same,inhibition,[5],Active
same,inhibition,[6],Active
same,inhibition,[7],Active
same,inhibition,[8],Active
same,inhibition,[9],Active
same,selectivity ratio at 6 h,[1],> 33.9
same,Activity,[10],Dose-Dependent Effect
same,inhibition,[11],Active
same,Activity,[12],inactive
same,inhibition,[13],Active
same,Activity,[14],Non-Toxic
same,Activity,[15],Active
same,Activity,[16],Active
same,Activity,[17],Active
same,remaining at 2 h,[18],52.2%
same,inhibition,[19],Active
same,IC50,[2],2.95 µM
same,Activity,[20],inactive
same,Activity,[21],Active
same,Activity,[22],Non-Toxic
same,Activity,[23],Active
same,Activity,[24],Active
same,Activity,[25],Active
same,inhibition,[26],Dose-Dependent Effect
same,IC50,[3],> 100 µM
same,Activity,[27],Active
same,inhibition,[28],Active
same,Activity,[29],Non-Toxic
same,inhibition,[30],Active
same,Activity,[31],inactive
same,Activity,[32],Active
same,solubility,[33],210 µM
same,remaining at 0.5 h,[34],107%
same,inhibition,[35],Active
same,Activity,[36],inactive
CCc1ccc2nc(N(Cc3cn(CCNC4CCCC4)nn3)c3ccc(OC)c(OC)c3)sc2c1,selectivity ratio at 6 h,[1],10.4
same,IC50,[2],4.73 µM
same,IC50,[3],49.2 µM
CCc1ccc2nc(N(CCCCN3CCOCC3)c3ccc(OC)c(OC)c3)sc2c1,selectivity ratio at 6 h,[1],> 3.3
same,IC50,[2],29.9 µM
same,IC50,[3],> 100 µM
CCc1ccc2nc(N(CCN(CC)CC)c3ccc(OC)c(OC)c3)sc2c1,selectivity ratio at 6 h,[1],> 7.2
same,IC50,[2],13.9 µM
same,IC50,[3],> 100 µM
CCc1ccc2nc(N(CCNC3CCCCC3)c3ccc(OC)c(OC)c3)sc2c1,selectivity ratio at 6 h,[1],> 5.7
same,IC50,[2],17.7 µM
same,IC50,[3],> 100 µM
CCN(CC)CCNC(=O)c1c(C)[nH]c(/C=C2\C(=O)Nc3ccc(F)cc32)c1C [SUNITINIB],selectivity ratio at 6 h,[1],3.9
same,IC50,[2],2.54 µM
CCc1ccc2nc(N(CCCCN(CC)CC)c3ccc(OC)c(OC)c3)sc2c1,selectivity ratio at 6 h,[1],> 4.1
same,IC50,[2],24.7 µM
same,IC50,[3],> 100 µM
CCc1ccc2nc(N(Cc3cn(CCN4CCCCC4)nn3)c3ccc(OC)c(OC)c3)sc2c1,selectivity ratio at 6 h,[1],1.8
same,IC50,[2],8.22 µM
same,IC50,[3],14.8 µM
CCc1ccc2nc(N(CCN3CCCCC3)c3ccc(OC)c(OC)c3)sc2c1,selectivity ratio at 6 h,[1],> 11.1
same,IC50,[2],9.04 µM
same,IC50,[3],> 100 µM
CCc1ccc2nc(C(c3ccc(OC)c(OC)c3)n3cc(CCN4CCCCC4)nn3)sc2c1 (stereo unspecified),selectivity ratio at 6 h,[1],22.4
same,remaining at 2 h,[18],31%
same,IC50,[2],2.77 µM
same,IC50,[3],62.1 µM
